Read-outs that look alike come from different tables or passages of the source.
Experiments:
[1] = system: genotype 1b (Con-1) HCV replicon; assay: HCV replicon luciferase assay; format: cell-based; conditions: Hepatitis C virus, 72 h, Huh-7 cells, genotype 1b replicon, Renilla luciferase, 3 days incubation
Description: Cell lines. The cell lines used to evaluate compounds consist of a human hepatocyte derived cell line (Huh-7) that constitutively expresses a genotype 1b (Con-1) HCV replicon or a genotype 1b (Con-1) HCV replicon with an asparagine replacing the cysteine at amino acid 316, or a genotype 2a (JFH-1) replicon, containing a Renilla luciferase reporter gene. These cells were maintained in Dulbecco's modified Eagle medium (DMEM) containing 10% FBS, 100 U/mL penicillin/streptomycin and 1.0 mg/mL G418.
HCV replicon luciferase assay. To evaluate compound efficacy, titrated compounds were transferred to sterile 384-well tissue culture treated plates, and the plates were seeded with HCV replicon cells (50 μL at a density of 2.4×10^3 cells/well) in DMEM containing 4% FBS (final DMSO concentration at 0.5%). After 3 days incubation at 37° C., cells were analyzed for Renilla Luciferase activity using the EnduRen substrate (Promega cat #E6485) according to the manufacturer's directions. Briefly, the EnduRen substrate was diluted in DMEM and then added to the plates to a final concentration of 7.5 μM. The plates were incubated for at least 1 h at 37° C. then read on a Viewlux Imager (PerkinElmer) using a luminescence program. The 50% effective concentration (EC50) was calculated using the four-parameter logistic formula noted above.
Compound EC50 data is expressed as A:<100 nM; B=100-1000 nM; C>1000 nM).

[2] = extended dosing of the combination regimens; cited from earlier work
[3] = system: HCV; conditions: combination therapy; cited from earlier work

Row | Compound | EC50 ([1]; read-out: EC50 lb (class)) | further results
1 | CCN(c1cc2oc(-c3ccc(-n4cccn4)cc3)c(C(=O)NC)c2cc1-c1cccc(C(=O)NC(C)(C)C)c1)S(C)(=O)=O [Compound 1001] | < 0.1 µM | EC50 ([1]; read-out: EC50 (uM) lb): 0.017 µM
2 | CCN(c1cc2oc(-c3ccc(-n4ccnn4)cc3)c(C(=O)NC)c2cc1-c1cccc(C(=O)NC(C)(C)C)c1)S(C)(=O)=O [Compound 1002] | < 0.1 µM | EC50 ([1]; read-out: EC50 (uM) lb): 0.069 µM
3 | CCN(c1cc2oc(-c3ccc(-n4nccn4)cc3)c(C(=O)NC)c2cc1-c1cccc(C(=O)NC(C)(C)C)c1)S(C)(=O)=O [Compound 1003] | < 0.1 µM | 
4 | CNC(=O)c1c(-c2ccc(-n3ccc(C(F)(F)F)n3)cc2)oc2nc(-n3ccc(C(F)(F)F)n3)c(-c3cccc(C(=O)NC(C)(C)C)c3)cc12 [Compound 2001] | 0.1 to 1 µM | 
5 | CNC(=O)c1c(-c2ccc(-n3cc(C(F)(F)F)cn3)cc2)oc2nc(-n3cc(C(F)(F)F)cn3)c(-c3cccc(C(=O)NC(C)(C)C)c3)cc12 [Compound 2002] | > 1 µM | 
6 | CNC(=O)c1c(-c2ccc(-n3ccnn3)cc2)oc2nc(CCC(F)(F)F)c(-c3cccc(C(=O)NC(C)(C)C)c3)cc12 [Compound 3001] | < 0.1 µM | EC50 ([1]; read-out: EC50 (uM) lb): 0.035 µM
7 | CNC(=O)c1c(-c2ccc(-n3ncnc3C)cc2)oc2nc(CCC(F)(F)F)c(-c3cccc(C(=O)NC(C)(C)C)c3)cc12 [Compound 3002] | > 1 µM | 
8 | CNC(=O)c1c(-c2ccc(-n3cnnc3C)cc2)oc2nc(CCC(F)(F)F)c(-c3cccc(C(=O)NC(C)(C)C)c3)cc12 [Compound 3003] | > 1 µM | EC50 ([1]; read-out: EC50 (uM) lb): 3.32 µM
9 | CNC(=O)c1c(-c2ccc(-n3cnc(C)n3)cc2)oc2nc(CCC(F)(F)F)c(-c3cccc(C(=O)NC(C)(C)C)c3)cc12 [Compound 3004] | 0.1 to 1 µM | 
10 | CNC(=O)c1c(-c2ccc(-n3ccnc3)cc2)oc2nc(CCC(F)(F)F)c(-c3cccc(C(=O)NC(C)(C)C)c3)cc12 [Compound 3006] | 0.1 to 1 µM | 
11 | CNC(=O)c1c(-c2ccc(-n3cncn3)cc2)oc2nc(CCC(F)(F)F)c(-c3cccc(C(=O)NC(C)(C)C)c3)cc12 [Compound 3007] | 0.1 to 1 µM | 
12 | CNC(=O)c1c(-c2ccc(-n3cc(C)cn3)cc2)oc2nc(CCC(F)(F)F)c(-c3cccc(C(=O)NC(C)(C)C)c3)cc12 [Compound 3008] | > 1 µM | 
13 | CNC(=O)c1c(-c2ccc(-n3cnc(C)c3)cc2)oc2nc(CCC(F)(F)F)c(-c3cccc(C(=O)NC(C)(C)C)c3)cc12 [Compound 3009] | > 1 µM | 
14 | CNC(=O)c1c(-c2ccc(-n3ccc(C)n3)cc2)oc2nc(CCC(F)(F)F)c(-c3cccc(C(=O)NC(C)(C)C)c3)cc12 [Compound 3010] | 0.1 to 1 µM | EC50 ([1]; read-out: EC50 (uM) lb): 0.28 µM
15 | CNC(=O)c1c(-c2ccc(-c3ncccc3O)cc2)oc2nc(CCC(F)(F)F)c(-c3cccc(C(=O)NC(C)(C)C)c3)cc12 [Compound 4001] | 0.1 to 1 µM | 
16 | CNC(=O)c1c(-c2ccc(F)cc2)oc2cc(N(CCO)S(C)(=O)=O)c(C3CC3)cc12 [HCV-796] |  | hepatic toxicity [2]: hepatic toxicity observed
17 | alpha-interferon and ribavirin |  | sustained efficacy, share of patients [3]: 40%

From patent US9840511B2, “2-(aryl or heteroaryl-)phenyl (AZA)benzofuran compounds for the treatment of hepatitis C” (BRISTOL-MYERS SQUIBB COMPANY, priority 2014, dated 2017)
